Our source for the inhibition values is ChEMBL document CHEMBL4699591, “An efficient synthesis tetrazole and oxadiazole analogues of novel 2'-deoxy-C-nucleosides and their antitumor activity” (2020).

As usually defined, the inhibition is the change of the read-out against control, counted positive when it falls.

Common to all, as to format: functional
Assay [1] relates to MDA-MB-231. In words: Cytotoxicity against human MDA-MB-231 cells assessed as inhibition of cell growth at 10 uM incubated for 72 hrs by MTT assay relative to control. A general note: Formazan colour is commonly taken as a measure of viable cells.
For the next assay, the system named is PC-3. In words: Cytotoxicity against human PC-3 cells assessed as inhibition of cell growth at 2 uM incubated for 72 hrs by MTT assay relative to control.
Another assay deals with HeLa. In words: Cytotoxicity against human HeLa cells assessed as inhibition of cell growth at 2 uM incubated for 72 hrs by MTT assay relative to control.
The subject of assay [2] is MDA-MB-231. In words: Cytotoxicity against human MDA-MB-231 cells assessed as inhibition of cell growth at 2 uM incubated for 72 hrs by MTT assay relative to control.
The subject of the next assay is PANC-1. In words: Cytotoxicity against human PANC-1 cells assessed as inhibition of cell growth at 2 uM incubated for 72 hrs by MTT assay relative to control.
A further assay has as its system SK-OV-3. In words: Cytotoxicity against human SK-OV-3 cells assessed as inhibition of cell growth at 2 uM incubated for 72 hrs by MTT assay relative to control.

Bounds are passed on as bounds.

Consider `CC(C)c1nc([C@H]2C[C@H](O)[C@@H](CO)O2)no1`, for which the inhibition at 10 µM in the assay with MDA-MB-231 [1] was determined as 9%.
In the case of `Cc1nnc([C@@H]2C[C@H](O)[C@@H](CO)O2)o1`, the inhibition at 10 µM with MDA-MB-231 [1] amounted to 9%.
In the case of `COc1cccc2c1C(=O)c1c(O)c3c(c(O)c1C2=O)C[C@@](O)(C(=O)CO)C[C@@H]3O[C@H]1C[C@H](N)[C@H](O)[C@H](C)O1` [DOXORUBICIN], the inhibition at 2 µM with PC-3, with HeLa, with MDA-MB-231 [2], in the assay with PANC-1 and in the assay on SK-OV-3 was more than 90% each time.
